pKi: −log10 of the molar value.
Assays:
Type in all cases: biochemical
FXIIa = molecular target: T1, FXIIa (Homo sapiens, UniProt P00748); experiment: Determination of Factor XIIa inhibition, chromogenic substrate S-2302 assay; conditions: human FXIIa alpha
T1 sequence (P00748 373-615 limits assumed): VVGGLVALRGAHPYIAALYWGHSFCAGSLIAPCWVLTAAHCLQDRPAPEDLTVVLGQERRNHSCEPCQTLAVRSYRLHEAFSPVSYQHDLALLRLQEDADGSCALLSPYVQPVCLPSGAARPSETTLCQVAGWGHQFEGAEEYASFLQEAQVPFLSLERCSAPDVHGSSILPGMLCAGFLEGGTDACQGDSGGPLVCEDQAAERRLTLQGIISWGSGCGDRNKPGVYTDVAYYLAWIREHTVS
T1 sequence (P00748 20-372 partner limits assumed): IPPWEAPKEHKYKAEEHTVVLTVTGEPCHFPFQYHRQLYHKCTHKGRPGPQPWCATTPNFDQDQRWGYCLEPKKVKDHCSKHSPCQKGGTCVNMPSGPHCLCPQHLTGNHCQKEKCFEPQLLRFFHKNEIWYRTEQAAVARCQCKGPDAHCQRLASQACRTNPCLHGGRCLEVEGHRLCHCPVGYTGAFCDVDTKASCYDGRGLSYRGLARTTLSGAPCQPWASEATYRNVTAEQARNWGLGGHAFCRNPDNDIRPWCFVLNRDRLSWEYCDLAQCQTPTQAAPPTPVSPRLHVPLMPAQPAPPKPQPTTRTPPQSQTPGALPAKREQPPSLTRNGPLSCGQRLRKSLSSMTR
Procedure: (§1) The activities of the compounds of the invention have been determined in vitro using the following assays protocols for the screening of activity of FXIIa and other proteases. Each of these assays were performed in a purified system employing the use of chromogenic assays in microplate plate wells. Chromogenic peptide substrates mimicking natural protein substrates are attached via an amide bond to a chromogenic group. Paranitroaniline (pNA) is released from the peptide following catalyses by the proteolytic enzyme; the absorbance increases and can be monitored at 405 nm.
(§2) All compounds were dissolved in 100% (v/v) DMSO to a stock concentration of 10 mM, the highest concentration of compound used in each assay is 500 μM. The final concentrations of DMSO were 5% (v/v) in 50 mM Tris 137 mM NaC pH 7.4. Where no test compound was added a final concentration of 5% DMSO was employed.
Determination of Factor XIa Inhibition
Factor XIa activity was measured using a chromogenic substrate S-2302 (Chromogenix). Various concentrations of compound were incubated with 10 nM of FXIIa and incubated at 37° C. for 10 minutes in 50 mM Tris, 137 mM NaCl, pH 7.4, prior to the addition of a final concentration of 450 µM S-2302 chromogenic substrate. Kinetic readings at 405 nm were monitored every 12 secs for a total duration of 3 hours at 37° C. Gradients of initial rates were determined and employed to calculate IC50 values. Values of IC50 were converted to Ki values based on the formula: Ki=IC50/(1+[Substrate]/Km).
The activity of the compounds of the invention has been categorised based on the Ki values, the categories being “*”, “**” and “***”. […] The category “**” refers to compounds with a Ki value of 0.2 μM to 2 μM.

thrombin = molecular target: T2, thrombin (Homo sapiens, UniProt P00734); experiment: Determination of selectivity: thrombin inhibition, chromogenic substrate GPR assay; conditions: fold selectivity for FXIIa over thrombin
T2 construct: FXa (5 nM) and thrombin (5 nM)
Procedure: as §1, §2
(§3) Determination of Selectivity
(§4) To determine selectivity of test compounds, these test compounds were assayed for inhibitory activity against other serine proteases including FXa and thrombin. Essentially compounds at increasing concentrations were incubated with each enzyme: FXa (5 nM) and thrombin (5 nM), for 10 mins at 37° C. followed the appropriate chromogenic substrate, S2765 ([…]), and GPR ([…]) respectively in 50 mM Tris, 137 mM NaCl, pH 7.4. Chromogenic substrates S2765 was from Chromogenix, and GPR from Bachem. Kinetic readings at 405 nm were monitored every 12 secs for a total duration of 3 hours at 37° C. Gradients of initial rates were determined and employed to calculate IC50 values. Values of IC50 were converted to Ki values based on the formula: Ki=IC50/(1+[Substrate]/Km)
(§5) Where [Substrate] denotes the concentration of substrate used in the assay and Km is the determined value of each enzyme with its own substrate.
(§6) The fold selectivity for FXIIa over thrombin for the compounds of the invention has been categorised based on the fold selectivity values, the categories being “+”, “++” and “+++”. The category “+” refers to fold selectivity values less than 10. The category “++” refers to a fold selectivity value of 10 to 100. The category “+++” refers to fold selectivity values greater than 100.

FXa = FXa (Homo sapiens, UniProt P00742); experiment: Determination of selectivity: FXa inhibition, chromogenic substrate S2765 assay; conditions: fold selectivity for FXIIa over FXa
Sequence of FXa (P00742 235-488 limits assumed): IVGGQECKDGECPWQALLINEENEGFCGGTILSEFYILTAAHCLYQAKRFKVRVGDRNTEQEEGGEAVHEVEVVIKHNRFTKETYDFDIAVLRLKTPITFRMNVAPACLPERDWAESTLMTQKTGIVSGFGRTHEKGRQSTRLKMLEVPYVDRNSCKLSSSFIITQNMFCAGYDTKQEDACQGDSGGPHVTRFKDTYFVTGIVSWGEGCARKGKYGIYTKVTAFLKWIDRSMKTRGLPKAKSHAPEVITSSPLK
Sequence of FXa (P00742 41-179 partner limits assumed): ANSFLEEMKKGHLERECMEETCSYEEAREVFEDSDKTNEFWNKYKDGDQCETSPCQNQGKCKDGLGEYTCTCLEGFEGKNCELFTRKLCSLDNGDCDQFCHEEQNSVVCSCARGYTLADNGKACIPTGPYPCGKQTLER
Procedure: as §1, §2, §3, §4, §5, §6
The fold selectivity for FXIIa over FXa for the compounds of the invention has been categorised based on the fold selectivity values, the categories being “o”, “oo” and “ooo”. The category “o” refers to fold selectivity values less than 10. The category “oo” refers to a fold selectivity value of 10 to 100. The category “ooo” refers to fold selectivity values greater than 100.

| SMILES | pKi (FXIIa) | Thrombin (human)/FXIIa alpha (human) (thrombin) | FXa (human)/FXIIa alpha (human) (FXa) |
| --- | --- | --- | --- |
| Nc1cc(CNC(=O)[C@@H]2C[C@H](NC(=O)c3ccccc3)CN2C(=O)[C@H](N)CCc2ccccc2)ccn1 [Example M05142] | 5.70 to 6.70 | + (fold selectivity values less than 10) | ∘∘ |
| COc1cc(CNC(=O)[C@@H]2C[C@H](c3ccccc3)CN2C(=O)[C@H](N)CCc2ccccc2)ccc1CN [Example M05068] | 5.70 to 6.70 | ++ (fold selectivity value of 10 to 100) | ∘∘∘ |
| Cn1nnc2cc(CNC(=O)[C@@H]3C[C@H](NC4CCCCC4)CN3C(=O)[C@H](N)CCc3ccccc3)ccc21 [Example M05203] | < 5.70 | ++ (fold selectivity value of 10 to 100) | ∘∘ |
| Cn1nnc2cc(CNC(=O)[C@@H]3C[C@@H](Cc4cccnc4)CN3C(=O)[C@H](N)CCC(=O)N3CCCC3)ccc21 [Example M05218] | 5.70 to 6.70 | +++ (fold selectivity values greater than 100) | ∘∘∘ |
| Cn1nnc2cc(CNC(=O)[C@@H]3C[C@@H](Cc4cccc(Br)c4)CN3C(=O)[C@H]3C[C@@H](c4ccccc4)CN3)ccc21 [Example M05366] | 5.70 to 6.70 | ++ (fold selectivity value of 10 to 100) | ∘∘ |
| COc1ccc(C[C@@H]2C[C@@H](C(=O)NCc3ccc4c(c3)nnn4C)N(C(=O)[C@H](N)CCC(=O)N3CCCNCC3)C2)cc1 [Example M05461] | > 6.70 | +++ (fold selectivity values greater than 100) | ∘∘∘ |
| COc1ccc(C[C@@H]2C[C@@H](C(=O)NCc3ccc4c(c3)nnn4C)N(C(=O)[C@H](N)CCC(=O)N3CCNC[C@H]3C)C2)cc1 [Example M05443] | 5.70 to 6.70 | +++ (fold selectivity values greater than 100) | ∘∘∘ |
| Cn1nnc2cc(CNC(=O)[C@@H]3C[C@@H](Cc4ccccc4C(F)(F)F)CN3C(=O)[C@H]3C[C@@H](c4ccccc4)CN3)ccc21 [Example M05357] | < 5.70 | ++ (fold selectivity value of 10 to 100) | ∘∘ |
| Cn1nnc2cc(CNC(=O)[C@@H]3C[C@H](NC(=O)CCCc4ccccc4)CN3C(=O)[C@H](N)CCc3ccccc3)ccc21 [Example M05196] | < 5.70 | ++ (fold selectivity value of 10 to 100) | ∘∘ |
| Cn1nnc2cc(CNC(=O)[C@@H]3C[C@@H](Cc4ccncc4)CN3C(=O)[C@@H](CCC(=O)N3CCCC3)NC(=O)Cc3ccccc3)ccc21 [Example M05267, (2S,4R)-1-((R)-5-Oxo-2-phenylacetylamino-5-pyrrolidin-1-yl-pentanoyl)-4-pyridin-4-ylmethyl-pyrrolidine-2-carboxylic acid (1-methyl-1H-benzotriazol-5-ylmethyl)-amide] | < 5.70 | ++ (fold selectivity value of 10 to 100) | ∘∘ |
| Cn1nnc2cc(CNC(=O)[C@@H]3C[C@@H](Cc4ccncc4)CN3C(=O)[C@@H](CCC(=O)N3CCCC3)NS(=O)(=O)c3ccccc3)ccc21 [Example M05290] | < 5.70 | +++ (fold selectivity values greater than 100) | ∘∘ |
| COc1ccc(C[C@@H]2C[C@@H](C(=O)NCc3ccc4c(c3)nnn4C)N(C(=O)[C@H]3CC(c4ccccc4OC)CN3)C2)cc1 (stereo partly drawn) [Example M05378] | 5.70 to 6.70 | ++ (fold selectivity value of 10 to 100) | ∘∘∘ |
| COc1ccc(C[C@@H]2C[C@@H](C(=O)NCc3ccc4c(c3)nnn4C)N(C(=O)C3NCCc4cc(Cl)ccc43)C2)cc1 (stereo partly drawn) [Example M05431] | < 5.70 | ++ (fold selectivity value of 10 to 100) | ∘∘ |
| Cn1nnc2cc(CNC(=O)[C@@H]3C[C@@H](Cc4ccccc4F)CN3C(=O)[C@H]3C[C@@H](c4ccccc4)CN3)ccc21 [Example M05332] | < 5.70 | ++ (fold selectivity value of 10 to 100) | ∘∘ |
| Cn1nnc2cc(CNC(=O)[C@@H]3C[C@H](NCCc4ccccc4)CN3C(=O)[C@H](N)CCc3ccccc3)ccc21 [Example M05205] | < 5.70 | ++ (fold selectivity value of 10 to 100) | ∘∘ |
| Cn1nccc1-c1cccc(C[C@@H]2C[C@@H](C(=O)NCc3ccc4c(c3)nnn4C)N(C(=O)[C@H](N)CCC(=O)N3CCCC3)C2)c1 [Example M05350, (2S,4R)-1-((R)-2-Amino-5-oxo-5-pyrrolidin-1-yl-pentanoyl)-4-[3-(2-methyl-2H-pyrazol-3-yl)-benzyl]-pyrrolidine-2-carboxylic acid (1-methyl-1H-benzotriazol-5-ylmethyl)-amide] | 5.70 to 6.70 | +++ (fold selectivity values greater than 100) | ∘∘∘ |
| Cn1nnc2cc(CNC(=O)[C@@H]3C[C@H](N4CCN(Cc5ccccc5)CC4)CN3C(=O)[C@H](N)CCc3ccccc3)ccc21 [Example M05200, (2S,4S)-1-((R)-2-Amino-4-phenyl-butyryl)-4-(4-benzyl-piperazin-1-yl)-pyrrolidine-2-carboxylic acid (1-methyl-1H-benzotriazol-5-ylmethyl)-amide] | < 5.70 | ++ (fold selectivity value of 10 to 100) | ∘∘ |
| COc1ccc(C[C@@H]2C[C@@H](C(=O)NCc3ccc4c(c3)nnn4C)N(C(=O)[C@H](N)CC(O)c3ccccc3)C2)cc1 (stereo partly drawn) [Example M05379] | 5.70 to 6.70 | +++ (fold selectivity values greater than 100) | ∘∘∘ |
